Experimental data as given in ChEMBL document CHEMBL1201862, “PubChem BioAssay data set” (2004).
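Values below derive from 48-hour exposures of cells grown in 96-well plates, with endpoints linearly interpolated between the two concentrations bracketing the appropriate inhibition level. The concentration for 50% growth inhibition is given as GI50.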 Activity calls are given as the source filed them. Cut-off read from the data, not from the text of the source: active = GI50 up to about 1.1 µM and inactive = higher.

Columns and labels:
Assay in all cases: NCI anticancer screen, dose series, 48 h
SN12C = test system: SN12C
A498 = test system: A498
UACC-62 = test system: UACC-62
SF-295 = test system: SF-295
CAKI-1 = test system: CAKI-1
OVCAR-4 = test system: OVCAR-4
DMS-273 = test system: DMS-273
NCI-H226 = test system: NCI-H226
SK-MEL-28 = test system: SK-MEL-28
NCI-H460 = test system: NCI-H460
MOLT-4 = test system: MOLT-4
SF-268 = test system: SF-268
MDA-MB-435 = test system: MDA-MB-435
ACHN = test system: ACHN
SK-MEL-2 = test system: SK-MEL-2
HT-29 = test system: HT-29
SR = test system: SR
TK-10 = test system: TK-10
NCI-H522 = test system: NCI-H522
HL-60 = test system: HL-60

## Cc1cc(NC(=O)NC(=O)c2ccccc2NC(=O)CN)ccc1Oc1ncc(Br)cn1
SN12C
  GI50: 1.16 µM (inactive)
A498
  GI50: 0.454 µM (active)
UACC-62
  GI50: 0.207 µM (active)
SF-295
  GI50: 0.0661 µM (active)
CAKI-1
  GI50: 0.0627 µM (active)
OVCAR-4
  GI50: 20 µM (inactive)
DMS-273
  GI50: 0.313 µM (active)
NCI-H226
  GI50: 1.18 µM (inactive)
SK-MEL-28
  GI50: 0.859 µM (active)
NCI-H460
  GI50: 0.743 µM (active)
MOLT-4
  GI50: 2.5 µM (inactive)
SF-268
  GI50: 1.55 µM (inactive)
MDA-MB-435
  GI50: 145 nM (active)
ACHN
  GI50: 9.44 µM (inactive)
SK-MEL-2
  GI50: 0.437 µM (active)
HT-29
  GI50: 0.299 µM (active)
SR
  GI50: 1.06 µM (active)
TK-10
  GI50: 9.62 µM (inactive)

## Cc1ccc(C)c(NC(=O)c2cc(-c3ccc([N+](=O)[O-])cc3)nc(N)n2)c1
SN12C
  GI50: > 100 µM (inactive)
A498
  GI50: > 100 µM (inactive)
UACC-62
  GI50: > 100 µM (inactive)
NCI-H522
  GI50: > 100 µM (inactive)
SF-295
  GI50: > 100 µM (inactive)
CAKI-1
  GI50: > 100 µM (inactive)
OVCAR-4
  GI50: > 100 µM (inactive)
HL-60
  GI50: > 100 µM (inactive)
DMS-273
  GI50: > 100 µM (inactive)
NCI-H226
  GI50: > 100 µM (inactive)
SK-MEL-28
  GI50: > 100 µM (inactive)
NCI-H460
  GI50: > 100 µM (inactive)
MOLT-4
  GI50: > 100 µM (inactive)
SF-268
  GI50: > 100 µM (inactive)
ACHN
  GI50: > 100 µM (inactive)
SK-MEL-2
  GI50: > 100 µM (inactive)
HT-29
  GI50: > 100 µM (inactive)
SR
  GI50: > 100 µM (inactive)
TK-10
  GI50: > 100 µM (inactive)

## COC(=O)c1ccc(OCc2ccc3oc(=O)c(-c4ccccc4)nc3c2)cc1
SN12C
  GI50: > 100 µM (inactive)
NCI-H522
  GI50: 33.6 µM (inactive)
SF-295
  GI50: > 100 µM (inactive)
CAKI-1
  GI50: > 100 µM (inactive)
OVCAR-4
  GI50: > 100 µM (inactive)
HL-60
  GI50: 28.4 µM (inactive)
DMS-273
  GI50: > 100 µM (inactive)
NCI-H226
  GI50: > 100 µM (inactive)
SK-MEL-28
  GI50: > 100 µM (inactive)
NCI-H460
  GI50: > 100 µM (inactive)
MOLT-4
  GI50: 22.9 µM (inactive)
SF-268
  GI50: > 100 µM (inactive)
ACHN
  GI50: > 100 µM (inactive)
SK-MEL-2
  GI50: > 100 µM (inactive)
HT-29
  GI50: > 100 µM (inactive)
SR
  GI50: 30.8 µM (inactive)
TK-10
  GI50: 44 µM (inactive)

## CC(C)(C)c1cc(Oc2ccc(C#N)c(C#N)c2)cc(C(C)(C)C)c1
SN12C
  GI50: > 100 µM (inactive)
A498
  GI50: > 100 µM (inactive)
UACC-62
  GI50: > 100 µM (inactive)
NCI-H522
  GI50: 36.1 µM (inactive)
SF-295
  GI50: > 100 µM (inactive)
CAKI-1
  GI50: > 100 µM (inactive)
OVCAR-4
  GI50: > 100 µM (inactive)
HL-60
  GI50: > 100 µM (inactive)
DMS-273
  GI50: 14.1 µM (inactive)
NCI-H226
  GI50: > 100 µM (inactive)
SK-MEL-28
  GI50: > 100 µM (inactive)
NCI-H460
  GI50: 39.9 µM (inactive)
MOLT-4
  GI50: > 100 µM (inactive)
SF-268
  GI50: > 100 µM (inactive)
ACHN
  GI50: > 100 µM (inactive)
SK-MEL-2
  GI50: > 100 µM (inactive)
HT-29
  GI50: > 100 µM (inactive)
SR
  GI50: 19.8 µM (inactive)
TK-10
  GI50: > 100 µM (inactive)

## Clc1ccc(-n2nnc(C3=NCCCN3)c2-c2ccccc2)cc1
SN12C
  GI50: > 100 µM (inactive)
A498
  GI50: > 100 µM (inactive)
UACC-62
  GI50: > 100 µM (inactive)
NCI-H522
  GI50: > 100 µM (inactive)
SF-295
  GI50: > 100 µM (inactive)
CAKI-1
  GI50: > 100 µM (inactive)
OVCAR-4
  GI50: > 100 µM (inactive)
HL-60
  GI50: > 100 µM (inactive)
DMS-273
  GI50: > 100 µM (inactive)
NCI-H226
  GI50: > 100 µM (inactive)
SK-MEL-28
  GI50: > 100 µM (inactive)
NCI-H460
  GI50: > 100 µM (inactive)
MOLT-4
  GI50: > 100 µM (inactive)
SF-268
  GI50: > 100 µM (inactive)
ACHN
  GI50: > 100 µM (inactive)
SK-MEL-2
  GI50: > 100 µM (inactive)
HT-29
  GI50: > 100 µM (inactive)
SR
  GI50: > 100 µM (inactive)
TK-10
  GI50: > 100 µM (inactive)

## COC(=O)c1c/c(=N\NC(=O)CC(=O)Nc2ccc(C)cc2)c2ccccc2o1
SN12C
  GI50: > 100 µM (inactive)
A498
  GI50: > 100 µM (inactive)
UACC-62
  GI50: > 100 µM (inactive)
NCI-H522
  GI50: > 100 µM (inactive)
SF-295
  GI50: > 100 µM (inactive)
CAKI-1
  GI50: > 100 µM (inactive)
OVCAR-4
  GI50: > 100 µM (inactive)
HL-60
  GI50: > 100 µM (inactive)
DMS-273
  GI50: > 100 µM (inactive)
NCI-H226
  GI50: > 100 µM (inactive)
SK-MEL-28
  GI50: > 100 µM (inactive)
NCI-H460
  GI50: > 100 µM (inactive)
MOLT-4
  GI50: > 100 µM (inactive)
SF-268
  GI50: > 100 µM (inactive)
ACHN
  GI50: > 100 µM (inactive)
SK-MEL-2
  GI50: > 100 µM (inactive)
HT-29
  GI50: > 100 µM (inactive)
SR
  GI50: > 100 µM (inactive)
TK-10
  GI50: > 100 µM (inactive)

## C[C@]12CCC(=O)C=C1CC[C@@H]1[C@@H]2CC[C@]2(C)C(=O)NC(=O)C[C@@H]12
SN12C
  GI50: > 100 µM (inactive)
A498
  GI50: > 100 µM (inactive)
UACC-62
  GI50: > 100 µM (inactive)
NCI-H522
  GI50: > 100 µM (inactive)
SF-295
  GI50: > 100 µM (inactive)
CAKI-1
  GI50: > 100 µM (inactive)
OVCAR-4
  GI50: > 100 µM (inactive)
HL-60
  GI50: > 100 µM (inactive)
DMS-273
  GI50: > 100 µM (inactive)
NCI-H226
  GI50: > 100 µM (inactive)
SK-MEL-28
  GI50: > 100 µM (inactive)
NCI-H460
  GI50: > 100 µM (inactive)
MOLT-4
  GI50: > 100 µM (inactive)
SF-268
  GI50: > 100 µM (inactive)
ACHN
  GI50: > 100 µM (inactive)
SK-MEL-2
  GI50: > 100 µM (inactive)
HT-29
  GI50: > 100 µM (inactive)
SR
  GI50: > 100 µM (inactive)
TK-10
  GI50: > 100 µM (inactive)
